This series has as its system Caco-2 monolayer permeability, A-to-B, LC-MS/MS. Briefly: Inhibitors of 12-hLO: Caco-2 Permeability Profiling. The following applies: stronger effect = higher value. From the text:
Assay Provider: Holman, T.R., University of California, Santa Cruz Grant #: MH08128301 Screening Center PI: Austin, C.P. Screening Center: NIH Chemical Genomics Center [NCGC] Human lipoxygenase 12hLO is a member of the closely related lipoxygenase family of enzymes which catalyze the site-specific oxidation of arachidonic acid to various hormone precursor molecules and as such is a candidate for drug development in a variety of disease areas, such as cancer and inflammation. After qHTS, hits were confirmed in follow-up assays, and leads were optimized through SAR. The resulting lead compound was further characterized through a battery ADME-Tox experiments and this assay describes its Caco-2 permeability. This permeability assay predicts the in vivo absorption of the lead across the intestinal lining by using a Caco-2 cell line and measuring the lead's rate of transport […].
1. Buffer Preparation: Prepare 1M HEPES: add 23.83g HEPES to 100ml of 0.85% NaCl Prepare HBSS+ buffer: add 12.8ml of 1M HEPES in 0.85% NaCl to 500ml HBSS buffer. 2. Take out the compounds from -80 degrees C, ultrasonicate or pre-warm for a few minutes to thaw the compounds. 3. […] The T0, LY and T90, LY plates are read by FlexStation 3 at excitation of 485 nm and emission of 535 nm to determine LY permeability. […]
Background: Caco-2 monolayers are a common model of the intestinal barrier.

Our source for the permeability Papp values is PubChem BioAssay AID504611 (National Center for Advancing Translational Sciences (NCATS), 2011).

For the compound `CC(=O)NC(c1cccs1)c1cc(Br)c2cccnc2c1O` (stereo unspecified), the permeability Papp was 8.8 10^-6 cm/s.
